# Source: PubChem BioAssay (NCI)
# Where “and” joins values, the source holds several entries; their conditions need not be identical. Equal entries are not always repeated.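 48-hour exposure; five concentrations; linearly interpolated endpoints. GI50 is the concentration that inhibits growth by half. TGI: concentration producing complete growth inhibition.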
# Legend:
# Test in all cases: NCI tumour cell line growth inhibition, 48 h
# [1] = system: CAKI-1 renal
# [2] = system: HCT-15 colon
# [3] = system: MOLT-4 leukemia
# [4] = system: NCI-H226 lung
# [5] = system: NCI-H23 lung
# [6] = system: PC-3 prostate
# [7] = system: SF-539 CNS
# [8] = system: SK-MEL-5 melanoma
# [9] = system: SN12C renal
# [10] = system: U251 CNS
Compound,GI50 [1],GI50 [2],TGI [2],GI50 [3],TGI [3],GI50 [4],TGI [4],GI50 [5],TGI [5],GI50 [6],TGI [6],GI50 [7],TGI [7],GI50 [8],TGI [8],GI50 [9],TGI [9],GI50 [10],TGI [10],TGI [1]
COc1ccc2c(c1)cn1c3ccc(OC)cc3[nH]c(=O)c21,< 0.01 µM,< 0.0177 µM,1.11 µM,< 0.0183 µM,1.04 µM,0.059 µM,8.97 µM,< 0.0238 µM,0.934 µM,< 0.0154 µM,1.59 µM,< 0.0159 µM,< 0.028 µM,< 0.019 µM,0.76 µM,< 0.0232 µM,1.65 µM,< 0.0172 µM,1.25 µM,–
COc1cc(Nc2nccc(-c3cnn4ncccc34)n2)cc(OC)c1,0.0703 µM,0.0889 µM,> 5.17 µM,0.0516 µM,0.165 µM,0.0577 µM,0.324 µM,0.0579 µM,0.586 µM,0.0843 µM,2.74 µM,0.0637 µM,0.257 µM,0.151 µM,3.19 µM,0.0942 µM,> 25 µM,0.075 µM,2.46 µM,4.02 µM
CCc1cc(Cc2cc(CC)cc(C(C)(C)C)c2O)c(O)c(C(C)(C)C)c1,1.92 µM,3.13 µM,11 µM,3.99 µM,> 100 µM,4.88 µM,16.1 µM,3.33 µM,12.5 µM,3.86 µM,14.7 µM,2.51 µM,5.98 µM,3.63 µM,12.7 µM,3.82 µM,13.7 µM,3.13 µM,11 µM,5.75 µM
COC(=O)c1cccc(COc2ccc([N+](=O)[O-])cc2Cl)c1,–,–,> 100 µM,–,> 100 µM,–,> 100 µM,–,> 100 µM,–,> 100 µM,–,> 100 µM,–,> 100 µM,–,> 100 µM,–,> 100 µM,> 100 µM
N[C@@H](Cc1ccc(N(CCCl)CCCl)cc1)C(=O)O,2.21 µM and 3.86 µM,19.4 µM and 21 µM,> 100 µM and 54.9 µM and 133 µM,3.43 µM and 1.45 µM,20.6 µM and 24.5 µM and 52.6 µM,44.6 µM and 26.6 µM,> 100 µM and 52.7 µM and 156 µM,20.6 µM and 12.5 µM,> 100 µM and 45.5 µM and 84.7 µM,32.5 µM,> 100 µM and 129 µM,6.03 µM and 4.36 µM,49.6 µM and 8.61 µM and 53.8 µM,27 µM and 18.4 µM,> 100 µM and 40 µM and 88 µM,3.73 µM and 9.39 µM,> 100 µM and > 68.3 µM and 161 µM,16.1 µM and 11.9 µM,> 100 µM and 31.7 µM and 121 µM,8.9 µM and 25.4 µM and 67.6 µM
N=C(N)c1ccc(-c2ccc(-c3ccccc3)o2)o1,3.4 µM,1.16 µM,4.22 µM,3.31 µM,10.2 µM,5.7 µM,24.2 µM,5.78 µM,19.8 µM,2.64 µM,10.1 µM,1.95 µM,4.43 µM,1.75 µM,3.19 µM,3.12 µM,10.3 µM,2.22 µM,5.12 µM,14.2 µM
COc1ccccc1NC(=O)C(=O)C(C#N)CC(C)(C)C=O (centres undefined),–,–,> 100 µM,–,> 100 µM,–,> 100 µM,–,> 100 µM,–,> 100 µM,–,> 100 µM,–,> 100 µM,–,> 100 µM,–,> 100 µM,> 100 µM
O=P1(NCCCl)OCCC(OO)N1CCCl (centres undefined),–,–,33.9 µM,–,> 83.4 µM,–,> 100 µM,–,> 84.8 µM,–,> 100 µM,–,33 µM,–,> 100 µM,–,> 100 µM,–,> 100 µM,35.9 µM
CN(CC(=O)O)Cc1c[nH]c2ccccc12,–,–,> 100 µM,–,> 100 µM,–,> 100 µM,–,> 100 µM,–,> 100 µM,–,> 100 µM,–,> 100 µM,–,> 100 µM,–,> 100 µM,> 100 µM
